# Assay: Human HepG2 cell viability assay in 384 well format
# Format: toxicity, cell-based
# Set-up: dose 125 nL, time 70.5 hour; cytotoxicity at 70.5 h: concentration not given beside the values
# Details: HepG2 cells, read-out: Inhibition
row,SMILES,cytotoxicity at 70.5 h [%]
1,Cc1ccc(CNC(=O)CCC(=O)NCCC(C)C)o1,18.9
2,COCCN1C[C@@H](C(=O)O)[C@H](c2ccccc2C)C1,31.8
3,Cn1ncc(C2CC(=O)NCc3nc4ccccn4c32)c1C1CC1 (stereo not drawn),-11.4
4,CC(C)c1nnc(NC(=O)N2CCCC2c2ccncc2)s1 (stereo not drawn),20
5,CCN1CC(C(=O)NCc2cccnc2-n2cccn2)CC1=O (stereo not drawn),-7.76
6,Cc1nc(C)n(CC2CCCN(Cc3ccc(F)cc3C#N)C2)n1 (stereo not drawn),-1.49
7,CCC(=O)CNC(=O)CCn1nc2ccccn2c1=O,-1.88
8,OCCn1nccc1C1CCN(CCOc2ccccc2Cl)CC1,-0.941
9,CCN(CC)S(=O)(=O)N1C[C@@H](c2ccccc2)[C@H]2[C@H]1CCCCCN2C,-1.32
10,COc1ccc(S(=O)(=O)NCC(C)(O)c2cccs2)cc1Cl (stereo not drawn),-10.5
11,CSc1cccc(CNC(=O)[C@H]2CNC[C@H](C(=O)N3CCOCC3)C2)c1,-2.2
12,Cn1cc(C(=O)NC(Cn2cccn2)C(C)(C)C)cn1 (stereo not drawn),2.11
13,O=c1cc(Cn2cncn2)nc2n1CCCN(Cc1ccsc1)C2,-11.7
14,CC(C)c1nc(CCn2cncn2)n(-c2ccc3c(c2)OCCO3)n1,-12.6
15,O=C(Nc1ccc(F)cc1)C1CNCCN1C(=O)CCc1cccnc1 (stereo not drawn),-5.37
16,O=C(c1nn[nH]c1Nc1ccc(Cl)cc1)N1CCSCC1,9.23
17,CC(C)OCCN1CCN(C(=O)c2cccc(-n3cccn3)n2)CC1,-0.664
18,CCC(O)CN1CCN(C(=O)c2csc(COC)n2)CC1 (stereo not drawn),-3.48
19,Cc1cccc(C(C)(C)NC(=O)CS(=O)(=O)CC(C)C)c1,-4.98
20,CC(C(=O)N1CCN(Cc2ccc3c(c2)OCO3)CC1)n1ccnc1 (stereo not drawn),0.67
21,CCc1cccc(CC)c1NC(=O)c1ccccc1N(C)S(C)(=O)=O,-8.14
22,O=C(C1CCC2(CCN(CC3CC3)CC2)O1)N1CCCC1 (stereo not drawn),-7.11
23,CN(C)C(=O)c1nc(-c2ccc(S(C)(=O)=O)cc2)c2cnccn12,-6.88

row,SMILES,cytotoxicity at 70.5 h [%]
1,Cc1occc1C(=O)N1CCC2(CCN(C(=O)c3cccnc3)C2)CC1,5.51
2,CN(Cc1ccc(Cl)cc1)S(=O)(=O)N(C)Cc1cnn(C)c1,-1.12
3,Cc1ccc(CN2CCC3(C2)C(=O)N(CC(C)C)c2ccccc23)s1 (stereo not drawn),-7.14
4,Cc1ccc(C(=O)NCC(O)c2ccc(Cl)s2)c(=O)[nH]1 (stereo not drawn),-23.1
5,Cc1csc(N2CCN(CC(=O)Nc3cc(C)nn3C)CC2C)n1 (stereo not drawn),2.09
6,CN(Cc1nc(N2CCCC2)ncc1-c1ccncc1)C(=O)C(C)(C)C,-2.37
7,Cc1noc(C(C)C)c1C(=O)NCC(c1cccs1)N(C)C (stereo not drawn),-8.63
8,COCCN1C[C@@H](C)[C@@]2(COCCN(C(=O)c3cccs3)C2)C1,1.58
9,CCN1CCN(C)C(=O)C12CCN(C(=O)Cc1ccccn1)CC2,0.951
10,CN(Cc1cccnc1)[C@@H]1CN(C(=O)NC2CC2)[C@@H]2CCCO[C@H]12,-6.43
11,O=C(NCc1cccnc1)N[C@H]1CC[C@@]2(CCC(=O)N2CC2CC2)CC1,8.65
12,CCn1ncnc1C(C)NC(=O)C1CCN(C2CCCCC2)CC1 (stereo not drawn),-7.1
13,O=C(O)C1CN(c2cncc(Cc3ccccc3F)n2)C1,-6.79
14,Cn1cccc1C(=O)Nc1cc(F)ccc1OCC1CCCO1 (stereo not drawn),-17.4
15,CCn1ncnc1C(C)NC(=O)COc1ccc(Cl)cc1Cl (stereo not drawn),-10.4
16,COc1ccc(-c2nccn2C[C@@H]2CCCN3CCCC[C@H]23)cc1,1.3
17,Cc1cc(C)c(N(CC(O)CNCc2ccccc2)S(C)(=O)=O)c(C)c1 (stereo not drawn),-6.51
18,COc1ccc(CNCc2ccc(N3CCCCC3)nc2)cc1OC,-4.42
19,CN(C)C(=O)Cc1ccccc1NCc1cccc(F)c1F,0.378
20,COc1ccc2c(c1)c(-c1nc(N(C)C)ncc1CN)cn2C,12.9
21,Cc1cccc(OCCC(=O)N(C)CCNS(C)(=O)=O)c1C,0.181
22,O=C(Cn1nc(Br)nc1Br)N1CCCC1,-0.289
23,CC(Cn1cccn1)NC(=O)CCC(=O)c1cccs1 (stereo not drawn),-11.2

row,SMILES,cytotoxicity at 70.5 h [%]
1,Cc1ccc(CN2C[C@H]3CN(C(=O)c4ccno4)CCN3C2=O)cc1,6.23
2,c1nc(CCC2CCCCN2)cc(N2CCCC2)n1 (stereo not drawn),1.23
3,Cc1noc(CCNC(=O)c2ccc(N(C)C)c(F)c2)n1,-3.5
4,Cc1nc(C)n(CC2CCCN(CCOc3cccc(F)c3)C2)n1 (stereo not drawn),0.903
5,COCCCS(=O)(=O)N1CCN(Cc2cccn2C)CC1,43.4
6,COc1ccc(C2OC(COc3ccc(C)cc3)=NN2C(C)=O)cc1 (stereo not drawn),0.8
7,CC(CNC(=O)Nc1cn[nH]c1)N1CCc2ccccc2C1 (stereo not drawn),-7.18
8,Cc1occc1C(=O)N1CCC[C@]2(C[C@@H](OCc3ccccn3)CO2)C1,-9.42
9,CCN1CCn2c(C)cnc2C12CCN(C(=O)NC)CC2,-6.2
10,Cc1ccccc1C(CC(=O)NCC(N)=O)c1ccccc1 (stereo not drawn),-5.12
11,Cc1cccc(CN2CCn3cc(Cn4cccn4)nc3C2)n1,-12.9
12,CC(C)C(C)(CNC(=O)OC(C)(C)C)NC(=O)c1cnccn1 (stereo not drawn),2.42
13,Cn1ncc2c(=O)[nH]c(CN3CCCC3c3ccccc3Cl)nc21 (stereo not drawn),-8.75
14,CCOc1ccc(CN(C)C2CCN(c3cc(C)nn3C)C2=O)cc1 (stereo not drawn),19.7
15,Cc1nccc(N2CCCC2CCNS(C)(=O)=O)n1 (stereo not drawn),-2.97
16,CN1CCOC(C(=O)N2CCC3(CCCCC3)C2)C1 (stereo not drawn),-5.38
17,COCCN(Cc1cccc(C#N)c1)Cc1nnsc1Cl,23
18,COc1ccc(CN2C[C@@H]3CC[C@H](C2)N(Cc2snnc2C)C3)cc1,49
19,CCS(=O)(=O)NCCNC(=O)c1cnc(-c2ccccc2)nc1,-8.98
20,Cc1cc(N2CCCN(c3ccnc(C)c3)CC2)ccn1,-7.78
21,CCN(CC)C(=O)Cc1csc(C(C)C)n1,14
22,Cc1nc2n(n1)CC(NCC(=O)NCC1(c3ccccc3)CC1)CC2 (stereo not drawn),-3.45
23,CCN(CC(F)(F)F)C(=O)C1CCCN(Cc2cscn2)C1 (stereo not drawn),26.1

row,SMILES,cytotoxicity at 70.5 h [%]
1,Cc1nn(C)cc1-c1cc(C(F)(F)F)nc(NC2CCCCC2)n1,-9.44
2,Cc1nn(C)c2nc(N(C)CC3CCN(CC(C)C)C3)sc12 (stereo not drawn),1.29
3,CN(C)C(=O)N1CCN(Cc2nnc(C(C)(C)C)o2)CC1,-4.6
4,CC(C)CN1CCN(C(=O)c2ccn(C)c(=O)c2)CC1,-9.05
5,CCN1C[C@H]2[C@@H](C1)N(S(=O)(=O)c1ccccc1F)CC[C@H]2OC,-3.89
6,O=C(Nc1ccccc1-c1ccccc1)N1C[C@@H]2CNC[C@]2(C(=O)O)C1,-2.53
7,NC(=O)C(NC(=O)c1cc(Cl)c[nH]1)c1ccccc1 (stereo not drawn),-8.05
8,CC(C)CNC(=O)CNC(=O)Nc1cccc(Cl)c1-n1cccn1,1.42
9,O=C(C[S+]([O-])Cc1csc(C2CCCC2)n1)NC1CCCC1 (stereo not drawn),-1.25
10,Cc1cc(C2CCCN2CCCS(=O)(=O)c2ccccc2)no1 (stereo not drawn),-4.85
11,CCCc1n[nH]c(C2CN(CCS(=O)(=O)CC)CCO2)n1 (stereo not drawn),-7.9
12,Cc1cnc(CCNC(=O)NCCc2ccc(O)cc2)s1,-3.5
13,COC(=O)c1occc1Cn1cc(Br)cn1,-2.08
14,Cc1noc(C)c1CN1CC2(CCN(C(=O)c3ccoc3C)C2)CC1=O (stereo not drawn),-6.54
15,CN1C(=O)CC(c2ccccc2)C12CCN(c1ncccn1)CC2 (stereo not drawn),27.6
16,Cc1cc(C(=O)Nc2n[nH]c(C3CC3)n2)c2c(C)nn(C)c2n1,25.6
17,COCCn1ccc(NC(=O)Nc2ccccn2)n1,-10
18,Cc1cccc(C(C(=O)NCc2csc(-c3ncccn3)n2)N(C)C)c1 (stereo not drawn),-0.325
19,Cn1cc2c(n1)C(CNCc1ccco1)OCC2 (stereo not drawn),19.8
20,O=C(c1cccnc1N1CCN(CCO)CC1)N1CCCC1,-1.63
21,Cc1cnn(CCC(=O)N2CCC(Nc3cccnn3)CC2)c1,18.3
22,CNS(=O)(=O)c1ccc(C(=O)NC2CCc3nc(C)cn3C2)o1 (stereo not drawn),-6.79
23,Cc1cc(C2CCCN2C(=O)NCc2ccccn2)on1 (stereo not drawn),-16.2

row,SMILES,cytotoxicity at 70.5 h [%]
1,COc1ncccc1CN1C[C@H]2CCN(C(C)C)C[C@H]2C1,-4.86
2,CC(C)N(C)Cc1cnc2n1CCN(C(=O)Cc1ccsc1)C2,3.66
3,Cc1cc(CN(C)C(=O)c2ccc(Cl)cc2N2CCCC2=O)no1,-12.5
4,C/C(Cl)=C/CNC(=O)[C@H]1CC[C@]2(CC1)CN(C)C(=O)c1ccccc1O2,-6.71
5,O=C(c1cc(COc2ccc3c(c2)OCO3)[nH]n1)N1CCCC(O)C1 (stereo not drawn),0.249
6,Cc1nn(C)c2nc(-c3ccccn3)nc(NC[C@@H]3CCCO3)c12,2.37
7,O=C1NCC(c2ccc(Cl)cc2)Cc2[nH]c(CCN3CCOCC3)nc21 (stereo not drawn),-12.7
8,COc1cc(N(C)CCC(O)c2ccccc2)ncn1 (stereo not drawn),-3.53
9,OCCC1CN(C2CCC2)CCN1C1CCCC1 (stereo not drawn),-6.56
10,O=C(NCC1CC1)C1CCC2(CCN(C(=O)c3ccccn3)CC2)O1 (stereo not drawn),20.3
11,CN1CCC(CCc2ccnc(NC(=O)c3ccccn3)c2)CC1,15.4
12,CCOC(=O)CN1CCC(C(=O)c2cc(F)ccc2F)CC1,34.9
13,CC(C)C(=O)N1CC2(CCN(CC(C)(C)C)CC2)C1,47.3
14,COCCOC(=O)N1C[C@H]2CC[C@@H]1CN(C1Cc3ccccc3C1)C2,-3.17
15,Cc1c(O)cccc1C(=O)N1CCCC2(C1)C(=O)N(C)c1ccccc12 (stereo not drawn),23
16,CN(C)C(=O)c1cccc(NC(=O)c2cnn(C)c2)c1,-4.77
17,CCC[C@@H]1CN(Cc2ccc(C(F)(F)F)nc2)C[C@H]1C(=O)O,-8.04
18,Cc1n[nH]c(C)c1C1CCCN1C(=O)Cc1cccc(F)c1 (stereo not drawn),-19.6
19,CN(Cc1noc(C2CC2)n1)CC1CCN(CCO)CC1,14.4
20,COc1cccc(C(=O)N2CCc3nc(C4CCCN4)ncc3C2)c1 (stereo not drawn),-1.65
21,O=C(CCn1nc(-c2cccs2)oc1=O)Nc1cccc(F)c1,-6.28
